# Patent US20130338155A1, “METHOD FOR TREATING INFECTIONS” (SYNTA PHARMACEUTICALS CORP., priority 2006, published 2013)
# What was measured:
# Her2 = assay: Degradation of Her2 in BT-474 cells (Method 1, Western blot); assay type: cell-based, Human; details: overnight, FIG. 2
# Procedure: Human high-Her2 breast carcinoma BT474 (HTB-20), SK-BR-3 (HTB-30) and MCF-7 breast carcinoma (HTB-22) from American Type Culture Collection, Va., USA were grown in Dulbecco's modified Eagle's medium with 4 mM L-glutamine and antibiotics (100 IU/ml penicillin and 100 ug/ml streptomycine; GibcoBRL). To obtain exponential cell growth, cells were trypsinized, counted and seeded at a cell density of 0.5×10^6 cells/ml regularly, every 3 days. All experiments were performed on day 1 after cell passage.
# BT-474 cells were treated with 0.5 μM, 2 μM, or 5 μM of 17AAG (a positive control) or 0.5 μM, 2 μM, or 5 μM of Compound 108 or Compound 49 overnight in DMEM medium. After treatment, each cytoplasmic sample was prepared from 1×10^6 cells by incubation of cell lysis buffer (#9803, cell Signaling Technology) on ice for 10 minutes. The resulting supernatant used as the cytosol fractions were dissolved with sample buffer for SDS-PAGE and run on a SDS-PAGE gel, blotted onto a nitrocellulose membrane by using semi-dry transfer. Non-specific binding to nitrocellulose was blocked with 5% skim milk in TBS with 0.5% Tween at room temperature for 1 hour, then probed with anti-Her2/ErB2 mAb (rabbit IgG, #2242, Cell Signaling) and anti-Tubulin (T9026, Sigma) as, housekeeping control protein. HRP-conjugated goat anti-rabbit IgG (H+L) and HRP-conjugated horse anti-mouse IgG (H+L) were used as secondary Ab (#7074, #7076, Cell Signaling) and LumiGLO reagent, 20× Peroxide (#7003, Cell Signaling) was used for visualization.
# Hsp90 protein = assay: Malachite Green Assay of ATPase activity of Hsp90 protein; assay type: biochemical; details: 37° C. for 4 hours, FIG. 1
# Procedure: Hsp90 protein was obtained from Stressgen (Cat#SPP-770). Assay buffer: 100 mM Tris-HCl, Ph7.4, 20 mM KCl, 6 mM MgCl2. […] Malachite green reagent was added to the reaction. […] The plate was read by an ELISA reader with an absorbance at 620 nm.
inhibition of ATPase activity of Hsp90 (Hsp90 protein; 4 μM),SMILES,degradation of Her2 (Her2; 0.5 μM),degradation of Her2 (Her2; 2 μM),degradation of Her2 (Her2; 5 μM),inhibition of ATPase activity of Hsp90 (Hsp90 protein; 40 μM)
,"CCc1cc(-c2nnc(S)n2-c2cccc3ccccc23)c(O)cc1O [Compound 49, 3-(2,4-Dihydroxy-5-ethyl-phenyl)-4-(naphthalen-1-yl)-5-mercapto-triazole]",partial degradated,complete degradation,complete degradation,
significant inhibition,"Oc1ccc(-c2nnc(S)n2-c2cccc3ccccc23)c(O)c1 [Compound 108, 3-(2,4-Dihydroxy-phenyl)-4-(naphthalen-1-yl)-5-mercapto-triazole]",partially degradated,partially degradated,almost completely degraded,even greater inhibition of ATPase activity of Hsp90 than geldanamycin
